Tests used:
[1] = biological target: T1, PPARα (Homo sapiens, UniProt Q07869); assay: PPARα binding assay (SPA); details: concentrations up to 10 μM
T1 construct: made in house; host or cells: HEK293 (cell lysates)
T1 sequence (Q07869 1-468): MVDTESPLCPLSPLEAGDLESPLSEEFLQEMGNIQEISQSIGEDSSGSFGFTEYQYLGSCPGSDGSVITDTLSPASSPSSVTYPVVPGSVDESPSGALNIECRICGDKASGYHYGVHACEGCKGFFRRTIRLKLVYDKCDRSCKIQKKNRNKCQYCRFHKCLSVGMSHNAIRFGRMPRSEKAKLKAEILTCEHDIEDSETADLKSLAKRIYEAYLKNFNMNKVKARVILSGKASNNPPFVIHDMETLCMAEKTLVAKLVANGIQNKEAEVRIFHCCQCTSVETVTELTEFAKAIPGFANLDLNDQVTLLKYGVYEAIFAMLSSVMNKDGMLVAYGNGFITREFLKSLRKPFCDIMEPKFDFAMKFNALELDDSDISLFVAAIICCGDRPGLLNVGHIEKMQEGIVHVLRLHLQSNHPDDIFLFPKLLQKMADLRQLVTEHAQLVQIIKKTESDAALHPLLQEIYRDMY
T1 sequence (P19793 1-462 partner): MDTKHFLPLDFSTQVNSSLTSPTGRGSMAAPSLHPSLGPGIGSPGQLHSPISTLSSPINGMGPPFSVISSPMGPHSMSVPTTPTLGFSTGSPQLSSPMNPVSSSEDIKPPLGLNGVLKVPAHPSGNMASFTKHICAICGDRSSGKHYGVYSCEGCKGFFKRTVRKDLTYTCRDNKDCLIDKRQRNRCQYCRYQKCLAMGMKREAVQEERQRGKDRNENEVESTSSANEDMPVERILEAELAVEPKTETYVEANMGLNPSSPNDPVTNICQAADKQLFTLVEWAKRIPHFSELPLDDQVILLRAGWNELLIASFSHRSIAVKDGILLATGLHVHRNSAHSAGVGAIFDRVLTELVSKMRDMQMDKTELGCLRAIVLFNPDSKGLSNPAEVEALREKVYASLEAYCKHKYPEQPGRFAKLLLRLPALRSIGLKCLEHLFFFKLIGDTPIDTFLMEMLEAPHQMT
Procedure: (§1) Because GPR40 is known to be activated by ligands to PPARγ exemplified compounds are examined in PPARα, PPARδ, and PPARγ binding and functional assays to determine the selectivity of exemplified compounds for GPR40. Compounds exemplified herein are tested essentially as described below for PPAR binding and generally have binding values greater than 1000 nM with 10 μM concentrations of test compound and are thus considered negative for PPAR activity.
(§2) Binding affinities of compounds for the PPAR α, δ, and γ receptors are assessed using Scintillation Proximity Assay (SPA) technology. Biotinylated oligonucleotide Direct Repeat 2 (DR2) is used for binding the receptors to Yttrium silicate streptavidin-coated SPA beads. […] Non-specific binding is determined in the presence of 10,000 nM of the unlabeled PPAR α/δ dual agonist reference compound for the alpha and delta receptor assays and the PPARγ agonist reference compound for the gamma receptor assay. The binding reaction (100 μl per well in a 96 well [Costar 3632] plate) is incubated for 10 h and counted disintegration per minutes (dpm) on a Wallac Microbeta. Receptor binding affinity (IC50) for the compounds is determined by fitting an 11 point concentration-response curve with a 4-paramater logistic equation. K, is determined from the IC50 using the Cheng-Prussoff equation and Kd determined by saturation binding. […]

[2] = biological target: T2, PPARγ (Homo sapiens, UniProt P37231); assay: PPARγ binding assay (SPA); parameters: made in house; host or cells: HEK293 (cell lysates); details: concentrations up to 10 μM
T2 sequence (P37231 1-505): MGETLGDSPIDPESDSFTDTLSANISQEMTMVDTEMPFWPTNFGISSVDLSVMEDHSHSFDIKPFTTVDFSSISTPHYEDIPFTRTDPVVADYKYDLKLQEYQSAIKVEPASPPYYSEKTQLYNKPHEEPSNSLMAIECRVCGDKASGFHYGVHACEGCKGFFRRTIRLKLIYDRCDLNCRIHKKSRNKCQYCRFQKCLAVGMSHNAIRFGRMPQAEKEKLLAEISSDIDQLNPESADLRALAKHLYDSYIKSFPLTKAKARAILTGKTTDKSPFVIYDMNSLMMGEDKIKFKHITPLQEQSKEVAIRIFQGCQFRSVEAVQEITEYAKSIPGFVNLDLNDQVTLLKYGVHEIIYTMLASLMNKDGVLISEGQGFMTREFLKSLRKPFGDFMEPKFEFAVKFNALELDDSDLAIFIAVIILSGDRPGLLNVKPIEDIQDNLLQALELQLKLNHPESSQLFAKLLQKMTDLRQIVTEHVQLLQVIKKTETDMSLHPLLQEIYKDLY
T2 sequence (P19793 1-462 partner): T1 sequence (P19793 1-462 partner)
Procedure: as §1, §2

Which results are given for `CC#C[C@@H](CC(=O)O)c1ccc(OCc2ccc(CN3CCC4(C=Cc5ccccc54)CC3)s2)cc1` [Example 1, (3S)-3-[4-[[5-(Spiro[indene-1,4′-piperidine]-1′-ylmethyl)-2-thienyl]methoxy]phenyl]hex-4-ynoic acid]?
PPARα binding [1]: no binding is detected; PPARγ binding [2]: no binding is detected

Source: patent US8822486B2, “Spiropiperidine compounds” (Eli Lilly and Company, priority 2009, dated 2014)
